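The compound was tested at five concentrations on cells cultured in 96-well plates, with a 48-hour exposure period. TGI marks complete inhibition of growth.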
How the values were obtained:
Assay in all cases: inhibition of tumour cell growth, NCI panel, 48 h
HT29 colon = tested on: HT29 colon
HL-60(TB) leukemia = tested on: HL-60(TB) leukemia
SR leukemia = tested on: SR leukemia
KM12 colon = tested on: KM12 colon
MCF7 breast = tested on: MCF7 breast
LOX IMVI melanoma = tested on: LOX IMVI melanoma
NCI-H460 lung = tested on: NCI-H460 lung
CCRF-CEM leukemia = tested on: CCRF-CEM leukemia
UACC-257 melanoma = tested on: UACC-257 melanoma
TK-10 renal = tested on: TK-10 renal
PC-3 prostate = tested on: PC-3 prostate
OVCAR-8 ovarian = tested on: OVCAR-8 ovarian

COC1(CC[C@@H](C)COC2OC(CO)C(O)C(O)C2O)O[C@H]2C[C@H]3[C@@H]4CC=C5C[C@@H](OC6OC(CO)C(O)C(OC7OC(CO)C(O)C(O)C7O)C6OC6OC(C)C(O)C(O)C6O)CC[C@]5(C)[C@H]4CC[C@]3(C)[C@H]2[C@@H]1C (stereo not given in full)
TGI (HT29 colon): > 23.1 µM
TGI (HL-60(TB) leukemia): 26.8 µM
TGI (SR leukemia): > 100 µM
TGI (KM12 colon): 4.36 µM
TGI (MCF7 breast): 37.6 µM
TGI (LOX IMVI melanoma): 7.03 µM
TGI (NCI-H460 lung): 14.8 µM
TGI (CCRF-CEM leukemia): > 100 µM
TGI (UACC-257 melanoma): 26.3 µM
TGI (TK-10 renal): 43.8 µM
TGI (PC-3 prostate): 21.4 µM
TGI (OVCAR-8 ovarian): 59.7 µM

Cc1ccc2nc(-c3ccc(C(C)(C)C)cc3)oc(=O)c2c1
TGI (HT29 colon): 38.3 µM
TGI (HL-60(TB) leukemia): 40 µM
TGI (SR leukemia): 59.7 µM
TGI (KM12 colon): 20.3 µM
TGI (MCF7 breast): 63.1 µM
TGI (LOX IMVI melanoma): 32.3 µM
TGI (NCI-H460 lung): 41.6 µM
TGI (CCRF-CEM leukemia): 46.9 µM
TGI (UACC-257 melanoma): 46.2 µM
TGI (TK-10 renal): > 100 µM
TGI (PC-3 prostate): 69.6 µM
TGI (OVCAR-8 ovarian): 43.9 µM

CCOC(=O)/C=C(\C(=O)OCC)n1cc(C)c(=O)n(Cc2cnnn2COCCOC(C)=O)c1=O
TGI (HT29 colon): 21.2 µM
TGI (HL-60(TB) leukemia): 12.7 µM
TGI (SR leukemia): > 34.7 µM
TGI (KM12 colon): 31.8 µM
TGI (MCF7 breast): 24.5 µM
TGI (LOX IMVI melanoma): 21 µM
TGI (NCI-H460 lung): 35.6 µM
TGI (CCRF-CEM leukemia): 5.57 µM
TGI (UACC-257 melanoma): 26.3 µM
TGI (TK-10 renal): 10.8 µM
TGI (PC-3 prostate): > 59.2 µM
TGI (OVCAR-8 ovarian): 20.6 µM

O=C(Cn1c(C(=O)c2ccccc2)nc2ccccc21)c1ccccc1
TGI (HT29 colon): > 31.6 µM
TGI (HL-60(TB) leukemia): > 100 µM
TGI (SR leukemia): > 100 µM
TGI (KM12 colon): > 100 µM
TGI (MCF7 breast): > 100 µM
TGI (LOX IMVI melanoma): > 100 µM
TGI (NCI-H460 lung): > 100 µM
TGI (CCRF-CEM leukemia): > 100 µM
TGI (UACC-257 melanoma): > 100 µM
TGI (TK-10 renal): > 100 µM
TGI (PC-3 prostate): > 100 µM
TGI (OVCAR-8 ovarian): > 100 µM

O=C(/C(=C\I)c1ccccc1)c1ccccc1
TGI (HT29 colon): 4.95 µM
TGI (HL-60(TB) leukemia): 2.57 µM
TGI (SR leukemia): 41 µM
TGI (KM12 colon): 8.09 µM
TGI (MCF7 breast): 4.22 µM
TGI (LOX IMVI melanoma): 29.9 µM
TGI (NCI-H460 lung): 27.3 µM
TGI (CCRF-CEM leukemia): 54 µM
TGI (UACC-257 melanoma): 15.8 µM
TGI (TK-10 renal): 29.8 µM
TGI (PC-3 prostate): 7.38 µM
TGI (OVCAR-8 ovarian): 14.6 µM

O=C(O)/C=C/c1ccc2c(c1)CC1(Cc3ccccc3C1)C2
TGI (HT29 colon): > 100 µM
TGI (HL-60(TB) leukemia): 90.5 µM
TGI (SR leukemia): 62.3 µM
TGI (KM12 colon): > 100 µM
TGI (MCF7 breast): > 100 µM
TGI (LOX IMVI melanoma): > 100 µM
TGI (CCRF-CEM leukemia): > 100 µM
TGI (UACC-257 melanoma): > 100 µM
TGI (TK-10 renal): > 100 µM
TGI (PC-3 prostate): > 100 µM
TGI (OVCAR-8 ovarian): > 100 µM

O=C(O)[C@H](CCC[C@H]1C(=O)O[C@H](c2ccccc2)[C@H](c2ccccc2)N1C(=O)OCc1ccccc1)N[C@@H](c1ccccc1)[C@H](O)c1ccccc1
TGI (HT29 colon): > 100 µM
TGI (HL-60(TB) leukemia): 38.8 µM
TGI (SR leukemia): 52.3 µM
TGI (KM12 colon): 40.4 µM
TGI (MCF7 breast): > 100 µM
TGI (LOX IMVI melanoma): 51.9 µM
TGI (NCI-H460 lung): > 100 µM
TGI (CCRF-CEM leukemia): 46.4 µM
TGI (UACC-257 melanoma): > 100 µM
TGI (TK-10 renal): > 100 µM
TGI (PC-3 prostate): > 100 µM
TGI (OVCAR-8 ovarian): 45.7 µM

O=C1CSC(c2ccc(Cl)cc2Cl)N1c1ccc(Oc2ccc(Cl)cc2)c(Cl)c1 (stereo not given)
TGI (HT29 colon): 30.6 µM
TGI (HL-60(TB) leukemia): 48.3 µM
TGI (SR leukemia): 42.8 µM
TGI (KM12 colon): 50.1 µM
TGI (MCF7 breast): > 100 µM
TGI (LOX IMVI melanoma): 36.6 µM
TGI (NCI-H460 lung): 84.4 µM
TGI (CCRF-CEM leukemia): 61.3 µM
TGI (UACC-257 melanoma): > 100 µM
TGI (TK-10 renal): > 100 µM
TGI (PC-3 prostate): > 100 µM
TGI (OVCAR-8 ovarian): > 100 µM

CCOC(=O)C1(C#N)CC1
TGI (HT29 colon): > 100 µM
TGI (HL-60(TB) leukemia): > 100 µM
TGI (SR leukemia): > 100 µM
TGI (KM12 colon): > 100 µM
TGI (MCF7 breast): > 100 µM
TGI (LOX IMVI melanoma): > 100 µM
TGI (NCI-H460 lung): > 100 µM
TGI (CCRF-CEM leukemia): > 100 µM
TGI (UACC-257 melanoma): > 100 µM
TGI (TK-10 renal): > 100 µM
TGI (PC-3 prostate): > 100 µM
TGI (OVCAR-8 ovarian): > 100 µM

COc1nc2ccc(COc3ccc(C(=O)O)cc3)cc2nc1OC
TGI (HT29 colon): > 100 µM
TGI (HL-60(TB) leukemia): > 100 µM
TGI (SR leukemia): > 100 µM
TGI (KM12 colon): > 100 µM
TGI (MCF7 breast): > 100 µM
TGI (LOX IMVI melanoma): > 100 µM
TGI (NCI-H460 lung): > 100 µM
TGI (CCRF-CEM leukemia): 97.4 µM
TGI (UACC-257 melanoma): > 100 µM
TGI (PC-3 prostate): > 100 µM
TGI (OVCAR-8 ovarian): > 100 µM

OC1(c2ccc(Cl)cc2)c2ccccc2-c2nc3ccccc3n21 (stereo not given)
TGI (HT29 colon): > 100 µM
TGI (HL-60(TB) leukemia): > 100 µM
TGI (SR leukemia): > 100 µM
TGI (KM12 colon): > 100 µM
TGI (MCF7 breast): > 100 µM
TGI (LOX IMVI melanoma): > 100 µM
TGI (NCI-H460 lung): > 100 µM
TGI (CCRF-CEM leukemia): > 100 µM
TGI (UACC-257 melanoma): > 100 µM
TGI (TK-10 renal): > 100 µM
TGI (PC-3 prostate): > 100 µM
TGI (OVCAR-8 ovarian): > 100 µM

C=C1C(=O)O[C@H]2C[C@@H]1[C@@H](O)[C@H](O)[C@@H](C)CCCC(C)=CCC[C@@]2(C)O
TGI (HL-60(TB) leukemia): > 100 µM
TGI (SR leukemia): > 100 µM
TGI (KM12 colon): > 100 µM
TGI (MCF7 breast): 26.5 µM
TGI (LOX IMVI melanoma): 65 µM
TGI (NCI-H460 lung): 54.1 µM
TGI (CCRF-CEM leukemia): > 100 µM
TGI (UACC-257 melanoma): 36.4 µM
TGI (TK-10 renal): 30.4 µM
TGI (PC-3 prostate): 43.9 µM

O=C(/C=C(\C(=O)c1cccs1)c1cccs1)c1ccc(C(=O)/C=C(\C(=O)c2cccs2)c2cccs2)cc1
TGI (HT29 colon): > 100 µM
TGI (HL-60(TB) leukemia): > 100 µM
TGI (SR leukemia): > 100 µM
TGI (KM12 colon): > 100 µM
TGI (MCF7 breast): > 100 µM
TGI (NCI-H460 lung): > 100 µM
TGI (CCRF-CEM leukemia): > 100 µM
TGI (UACC-257 melanoma): > 100 µM
TGI (TK-10 renal): > 100 µM
TGI (PC-3 prostate): > 100 µM
TGI (OVCAR-8 ovarian): > 100 µM

CC1(C)COC2=C(C1)C(=O)c1ccccc1C2=O
TGI (HT29 colon): 5.41 µM
TGI (HL-60(TB) leukemia): 2.71 µM
TGI (SR leukemia): 8.37 µM
TGI (KM12 colon): 3.23 µM
TGI (MCF7 breast): 2.99 µM
TGI (LOX IMVI melanoma): 4.22 µM
TGI (NCI-H460 lung): 3.64 µM
TGI (CCRF-CEM leukemia): 5.77 µM
TGI (UACC-257 melanoma): 2.11 µM
TGI (TK-10 renal): 3.19 µM
TGI (PC-3 prostate): 3.58 µM
TGI (OVCAR-8 ovarian): 1.53 µM

CCOC(=O)c1c(SC(=O)c2ccc(OC)cc2)n(-c2ccccc2)c(=S)n(-c2ccccc2)c1=O
TGI (HT29 colon): > 100 µM
TGI (HL-60(TB) leukemia): 70.2 µM
TGI (SR leukemia): > 100 µM
TGI (KM12 colon): > 100 µM
TGI (MCF7 breast): > 100 µM
TGI (LOX IMVI melanoma): > 100 µM
TGI (NCI-H460 lung): > 100 µM
TGI (CCRF-CEM leukemia): > 100 µM
TGI (UACC-257 melanoma): > 100 µM
TGI (TK-10 renal): > 100 µM
TGI (PC-3 prostate): > 100 µM
TGI (OVCAR-8 ovarian): 76.5 µM

O=c1[nH]c(=O)n(COCc2ccccc2)cc1Nc1ccc(Br)cc1
TGI (HT29 colon): > 100 µM
TGI (HL-60(TB) leukemia): > 100 µM
TGI (SR leukemia): > 100 µM
TGI (KM12 colon): > 100 µM
TGI (MCF7 breast): > 100 µM
TGI (LOX IMVI melanoma): > 100 µM
TGI (NCI-H460 lung): > 100 µM
TGI (CCRF-CEM leukemia): > 100 µM
TGI (UACC-257 melanoma): > 100 µM
TGI (PC-3 prostate): > 100 µM

COC(=O)C1(SC)C2CCC3C2CCC31 (stereo not given)
TGI (HL-60(TB) leukemia): > 100 µM
TGI (SR leukemia): > 100 µM
TGI (MCF7 breast): > 100 µM
TGI (LOX IMVI melanoma): > 100 µM
TGI (NCI-H460 lung): > 100 µM
TGI (CCRF-CEM leukemia): > 100 µM
TGI (UACC-257 melanoma): > 100 µM
TGI (PC-3 prostate): > 100 µM
TGI (OVCAR-8 ovarian): > 100 µM

[N-]=[N+]=CC(=O)OCCCCl
TGI (HT29 colon): > 100 µM
TGI (HL-60(TB) leukemia): > 100 µM
TGI (SR leukemia): > 100 µM
TGI (KM12 colon): > 100 µM
TGI (MCF7 breast): > 100 µM
TGI (LOX IMVI melanoma): > 100 µM
TGI (NCI-H460 lung): > 100 µM
TGI (CCRF-CEM leukemia): > 100 µM
TGI (UACC-257 melanoma): > 100 µM
TGI (TK-10 renal): > 100 µM
TGI (PC-3 prostate): > 100 µM

— PubChem BioAssay (NCI)
